Laboratory results from patent EP0753513A2, “Optically active triazole derivative, process for producing the same, antifungal agent, and use thereof” (NIHON NOHYAKU CO., LTD., priority 1995, dated 1997).

Columns and labels:
Candida albicans IFO1270 [1] = test: Survival of mice inoculated with Candida albicans after oral treatment (Test Example 2); type: in vivo; details: ddY mice; 0.5% aqueous CMC solution containing 0.02% of test compound, orally, 5 ml/kg once a day for 4 days; survival ratio on final day (10 days following inoculation)
Procedure: ddY mice aged 6 weeks were divided into a control group having 10 mice and test groups each having 5 mice. After inoculating with 4 ml/kg of Candida albicans IFO1270 (2.5×10^7 cells/ml), which had been incubated on Sabouraud's glucose agar medium at 37°C for 2 hours, a 0.5% aqueous CMC solution (containing 10% of polyethylene glycol 400 and 0.1% of Tween 80) containing 0.02% of each test compound was orally administered to the mice in a dose of 5 ml/kg once a day for 4 days. The viable […] were counted for 10 days following the inoculation and the survival ratio on the final day was calculated. […]

Candida albicans IFO1270 [2] = test: Growth inhibition of Candida albicans in Sabouraud's glucose broth (Test Example 1); type: cell-based; details: two days incubation at 37°C under shaking; for Growth inhibition ratio 0.1 µg/ml (%): 0.1 µg/ml test compound; for Growth inhibition ratio 10 µg/ml (%): 10 µg/ml test compound
Procedure: Sabouraud's glucose broth (9.8 ml) was inoculated with 0.1 ml of Candida albicans IFO1270 (1.0×10^6 cells/ml). Then 0.1 ml of a solution of each test compound dissolved with dimethylsulfoxide in an appropriate concentration was added to give concentrations of 10 µg/ml and 0.1 µg/ml. Two days after incubating at 37°C under shaking, the growth inhibition ratio was measured. […]

Structure (SMILES) | Survival ratio (%) (Candida albicans IFO1270 [1]) | Growth inhibition ratio 0.1 µg/ml (%) (Candida albicans IFO1270 [2]) | Growth inhibition ratio 10 µg/ml (%) (Candida albicans IFO1270 [2])
CC(=O)N1CCN(c2ccc(OC[C@H]3CO[C@](Cn4ccnc4)(c4ccc(Cl)cc4Cl)O3)cc2)CC1 (relative stereo) [A, Cis-1-acetyl-4-[4-[[2-(2,4-dichlorophenyl)-2-(imidazol-1-ylmethyl)-1-3-oxolan-4-yl]methoxy]phenyl]piperazine, reference compound] | 40% | 47% | 59%
C[C@@H](Cc1ccc(F)cc1)[C@](O)(Cn1cncn1)c1ccc(F)cc1F [Compound 1, (2R,3S)-2-(2,4-difluorophenyl)-4-(4-fluorophenyl)-3-methyl-1-(1H-1,2,4-triazol-1-yl)butan-2-ol] | 80% | 48% | 64%
C[C@@H](Cc1ccc(F)cc1F)[C@](O)(Cn1cncn1)c1ccc(F)cc1F [Compound 2, (2R,3S)-2,4-bis(2,4-difluorophenyl)-3-methyl-1-(1H-1,2,4-triazol-1-yl)butan-2-ol] | 60% | 51% | 66%
C[C@@H](Cc1ccc(C#N)cc1)[C@](O)(Cn1cncn1)c1ccc(F)cc1F [Compound 7, (2R,3S)-4-(4-cyanophenyl)-2-(2,4-difluorophenyl)-3-methyl-1-(1H-1,2,4-triazol-1-yl)butan-2-ol] | 100% | 55% | 70%
